Experimental data taken from US7456292B2, “Hydroxamic acid-containing amino acid derivatives” (Bexel Pharmaceuticals, Inc., priority 2005, dated 2008).
Read-outs that look alike come from different tables or passages of the source.

What was measured:
[1] = system: Phosphodiesterase type 4 (PDE4); test: PDE-4 enzyme inhibition; assay type: biochemical, human
IL-6 [2] = test: LPS induced IL-6 in hPBMC; assay type: cell-based; conditions: Homo sapiens, LPS 1 μg/mL 24 hours
Procedure: (§1) Human PBMC monocyte cells were cultured and incubated with compounds at different concentrations. Cells were then challenged with lipopolysaccharides (LPS) at a concentration of (1 μg/mL) for 24 hours. Cell supernatants were then analyzed for the presence of TNF-α, IL-6 and IL-1β cytokines by antibody directed enzyme-linked immunoassay. Dexamethasone was used as a positive control in the experiments.

IL-6 [3] = test: LPS induced sepsis model in mice, serum IL-6; assay type: in vivo; conditions: Mus musculus; SW mice, oral 50 mg/kg body weight one hour before LPS, serum after 90 min
Procedure: (§2) SW mice were orally treated with vehicle, dexamethasone (5 mg/kg) and compounds at a dose of 50 mg/kg body weight one hour before LPS injection (10 μg/mouse, ip) and blood was collected after 90 min and measured serum TNF-α and IL-6 levels by ELISA.

IL-1β = test: LPS induced IL-1β in hPBMC; assay type: cell-based; conditions: Homo sapiens, LPS 1 μg/mL 24 hours
Procedure: as §1

MMP-9 = target: T1, MMP-9 (Homo sapiens, UniProt P14780); test: MMP-9 enzyme inhibition; assay type: biochemical
T1 construct: purchased Calbiochem PF024-5UG
Procedure: The enzyme MMP-9 (gelatinase B; EC 3.4.24.35, human recombinant, Calbiochem Cat. PF024-5UG) is used. MMP-9 is first activated with APMA for 60 minutes at 37° C. Test compound and/or vehicle is then preincubated for 60 minutes at 37° C. with the active enzyme (11 nM) in a reaction mixture containing 50 mM MOPS (pH 7.2), 10 mM CaCl2 and 10 μM ZnCl2. The reaction is initiated by addition of 4 μM Mca-Pro-Leu-Gly-Leu-Dpa-Ala-Arg-NH2 (SEQ. ID NO. 1) and incubated for 120 minutes at 37° C. Enzyme activity is determined spectrofluorometrically by measuring the formation of fluorescent Mca-Pro-Leu-Gly (SEQ. ID NO. 2). Compounds are screened at 10 μM.

TNF-α [4] = test: TNF-α secretion following LPS stimulation of mouse spleenic macrophages; assay type: cell-based; conditions: Macrophage, LPS stimulated mouse spleenic macrophages, read-out: Mice Spleen Cells (% Inhibition) TNF-α
nitric oxide = test: Nitric oxide secretion following LPS stimulation of mouse spleenic macrophages; assay type: cell-based; conditions: Macrophage, LPS stimulated mouse spleenic macrophages, read-out: Mice Spleen Cells (% Inhibition) NO
Human recombinant TACE = target: T2, Human recombinant TACE (Homo sapiens, UniProt P78536); test: TACE enzyme inhibition; assay type: biochemical
T2 construct: purchased R&D System 930-ADB; host or cells: Sf21 cells
Source text: Tumor necrosis factor-α converting enzyme (TACE/ADAM-17) is responsible for the release of TNF-α, a potent proinflammatory cytokine associated with many chronic debilitating diseases such as rheumatoid arthritis and multiple sclerosis. TNF-α also induces angiogenesis, promotes fibroblast proliferation and can combine with receptors on selected tumor cells to induce cell lysis. TACE is also implicated in amyloid precursor protein secretion. Human recombinant TACE expressed in Sf21 cells (R&D System, 930-ADB) is used. Test compound and/or vehicle is incubated with the enzyme (25 ng/ml) and 10 μM Mca-P-L-A-Q-A-V-Dpa-R-S-S-S-R-NH2 (SEQ. ID NO. 3) in Modified Tris-buffer pH 9.0 for 30 minutes at 25° C. Enzyme activity is determined spectrofluorimetrically by measuring the formation of fluorescent Mca-P-L-A-Q-A-NH2 (SEQ. ID NO. 4). Compounds are screened at 10 μM.

TNF-α [5] = test: LPS induced TNF-α in hPBMC; assay type: cell-based; conditions: Homo sapiens; hPBMC, 10 μM, LPS 1 μg/mL 24 hours; * average of two experiments; read-out: Inhibition (%) TNF-α
Procedure: as §1

T cell proliferation = test: Inhibition of T cell proliferation; assay type: cell-based, mice; conditions: Mus musculus, T-cell, 10 μM
Procedure: SJL mice were immunized with keyhole limpet hemocyanin (KLH) in complete Freund's adjuvant (CFA). 12 days later regional lymph nodes were isolated and a proliferative response to KLH in the presence or absence of drug was performed (in presence of 3H thymidine). The results are expressed at Stimulation index (CPM+antigen/CPM no antigen). Similarly, mitogen induced concanavalin A (CON-A), IL-4, IL-2 induced T cell proliferation was measured in presence of compounds are shown in Table VI.

[6] = target: T3, Phosphodiesterase type-3 (PDE3) (Homo sapiens, UniProt Q14432); test: PDE-3 enzyme inhibition; assay type: biochemical
T3 construct: from tissue; host or cells: human platelets

MMP-1 = target: T4, MMP-1 (Homo sapiens, UniProt P03956); test: MMP-1 enzyme inhibition; assay type: biochemical
T4 construct: purchased Calbiochem 444208; host or cells: human rheumatoid synovial fibroblast (natural source)
T4 sequence (P03956 100-469): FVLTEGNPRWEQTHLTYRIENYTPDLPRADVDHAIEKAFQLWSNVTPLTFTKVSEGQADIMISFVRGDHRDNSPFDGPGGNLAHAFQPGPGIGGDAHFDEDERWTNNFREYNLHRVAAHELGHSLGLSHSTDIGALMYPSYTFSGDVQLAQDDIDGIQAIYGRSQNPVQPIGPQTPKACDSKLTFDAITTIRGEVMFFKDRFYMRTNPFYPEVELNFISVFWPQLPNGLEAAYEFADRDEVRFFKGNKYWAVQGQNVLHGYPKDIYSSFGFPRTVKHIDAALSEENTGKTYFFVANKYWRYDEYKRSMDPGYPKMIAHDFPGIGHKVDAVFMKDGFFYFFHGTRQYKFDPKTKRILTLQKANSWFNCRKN
Procedure: The enzyme MMP-1 (interstitial collagenase; EC 3.4.24.7, human rheumatoid synovial fibroblast, Calbiochem Cat. 444208) is used. MMP-1 is first activated with APMA for 60 minutes at 37° C. Test compound and/or vehicle is then preincubated for 60 minutes at 37° C. with the active enzyme ([…]) in a reaction mixture containing 50 mM MOPS (pH 7.2), 10 mM CaCl2 and 10 μM ZnCl2. The reaction is initiated by addition of Mca-Pro-Leu-Gly-Leu-Dpa-Ala-Arg-NH2 (SEQ. ID NO. 1) (4 μM) and incubated for 120 minutes at 37° C. The N-terminal protecting group Mca is 7-methoxycoumarin-4-yl acetyl. The amino acid Dpa is N^3-(2,4-dinitrophenyl)-L-diaminopropanoyl. Enzyme activity is determined spectrofluorometrically by measuring the formation of fluorescent Mca-Pro-Leu-Gly (SEQ. ID NO. 2). Compounds are screened at 10 μM.

[7] = system: Collagen Induced Arthritis Model; test: Collagen induced arthritis model; assay type: in vivo; conditions: male DBA/1 Lac mice, oral 50 mg/kg daily
Procedure: Arthritis induced in male DBA/1 Lac mice with bovine collagen (100 μg/mouse). Booster dose was given on Day 21 and started treatment when clinical score was about 2. […] Dexamethasone was kept as positive control. Severity of each paw score was defined from 0=no erythma to 4=severe arthritis for the swollen paws with a maximum possible score of 16 for 4 paws (4×4) in one animal.

TNF-α [8] = test: LPS induced TNF-α in THP-1 monocytic cells; assay type: cell-based; conditions: Homo sapiens, LPS 1 μg/mL 24 hours
Procedure: as §1, with “THP-1” for “PBMC”, “TNF-α” for “TNF-α, IL-6 and IL-1β”, “immunoassay from R & D System, Minneapolis, USA.” for “immunoassay. Dexamethasone was used as a positive control in the experiments.”

IL-12 = IL-12 secretion following LPS stimulation of mouse spleenic macrophages; assay type: cell-based
Source text: Compound 6 of this class inhibited IL-12 production in mouse splenic macrophages stimulated with LPS for 72 hrs.

TNF-α [9] = test: LPS induced sepsis model in mice, serum TNF-α; assay type: in vivo; conditions: Mus musculus; SW mice, oral 50 mg/kg body weight one hour before LPS, serum after 90 min
Procedure: as §2

T3 sequence (Q14432 whole entry): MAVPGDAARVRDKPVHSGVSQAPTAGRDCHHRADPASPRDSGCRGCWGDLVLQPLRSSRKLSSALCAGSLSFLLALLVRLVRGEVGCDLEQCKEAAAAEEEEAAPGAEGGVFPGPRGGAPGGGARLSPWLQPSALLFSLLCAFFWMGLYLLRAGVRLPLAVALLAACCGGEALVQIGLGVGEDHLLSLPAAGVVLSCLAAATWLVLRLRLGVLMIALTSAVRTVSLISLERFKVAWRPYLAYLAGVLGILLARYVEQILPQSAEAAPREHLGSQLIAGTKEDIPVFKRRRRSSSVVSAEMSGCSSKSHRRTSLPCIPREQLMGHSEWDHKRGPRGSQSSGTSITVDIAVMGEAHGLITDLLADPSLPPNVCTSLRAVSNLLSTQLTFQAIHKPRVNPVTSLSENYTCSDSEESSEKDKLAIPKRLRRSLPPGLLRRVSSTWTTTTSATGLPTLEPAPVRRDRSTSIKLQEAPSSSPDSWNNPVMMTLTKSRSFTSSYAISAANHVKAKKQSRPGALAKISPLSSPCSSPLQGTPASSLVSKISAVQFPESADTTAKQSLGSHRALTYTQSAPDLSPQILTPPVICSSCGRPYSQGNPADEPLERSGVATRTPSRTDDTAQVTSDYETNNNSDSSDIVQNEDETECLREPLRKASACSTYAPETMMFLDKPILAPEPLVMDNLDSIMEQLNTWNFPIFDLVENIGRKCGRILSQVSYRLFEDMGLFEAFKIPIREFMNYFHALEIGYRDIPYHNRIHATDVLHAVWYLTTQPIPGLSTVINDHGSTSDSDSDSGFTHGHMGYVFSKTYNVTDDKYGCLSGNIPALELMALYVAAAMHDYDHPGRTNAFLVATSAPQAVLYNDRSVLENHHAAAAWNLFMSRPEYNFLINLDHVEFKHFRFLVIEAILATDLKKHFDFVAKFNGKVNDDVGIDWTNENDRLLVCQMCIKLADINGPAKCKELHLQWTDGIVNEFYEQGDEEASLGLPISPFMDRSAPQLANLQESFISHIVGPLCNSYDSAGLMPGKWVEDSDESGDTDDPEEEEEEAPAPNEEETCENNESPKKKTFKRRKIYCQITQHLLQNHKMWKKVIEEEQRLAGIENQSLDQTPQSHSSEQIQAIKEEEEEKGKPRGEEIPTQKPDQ
T1 sequence (P14780 107-707 limits assumed): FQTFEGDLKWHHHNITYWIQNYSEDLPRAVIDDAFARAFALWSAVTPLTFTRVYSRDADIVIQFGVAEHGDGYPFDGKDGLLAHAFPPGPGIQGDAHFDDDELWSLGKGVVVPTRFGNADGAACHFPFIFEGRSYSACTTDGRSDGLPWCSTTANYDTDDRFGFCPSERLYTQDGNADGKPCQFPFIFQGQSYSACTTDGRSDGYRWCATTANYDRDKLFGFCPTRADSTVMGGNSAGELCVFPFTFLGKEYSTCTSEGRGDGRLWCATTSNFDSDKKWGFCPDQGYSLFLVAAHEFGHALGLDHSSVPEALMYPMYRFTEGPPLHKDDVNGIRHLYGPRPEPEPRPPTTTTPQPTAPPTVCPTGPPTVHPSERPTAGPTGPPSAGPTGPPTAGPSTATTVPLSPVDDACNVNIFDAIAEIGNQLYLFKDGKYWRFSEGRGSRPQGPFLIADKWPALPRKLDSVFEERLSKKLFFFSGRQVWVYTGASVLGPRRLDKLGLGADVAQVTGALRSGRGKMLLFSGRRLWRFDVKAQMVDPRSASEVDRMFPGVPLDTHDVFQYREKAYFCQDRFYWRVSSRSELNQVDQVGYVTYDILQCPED
T2 sequence (P78536 215-671 limits assumed): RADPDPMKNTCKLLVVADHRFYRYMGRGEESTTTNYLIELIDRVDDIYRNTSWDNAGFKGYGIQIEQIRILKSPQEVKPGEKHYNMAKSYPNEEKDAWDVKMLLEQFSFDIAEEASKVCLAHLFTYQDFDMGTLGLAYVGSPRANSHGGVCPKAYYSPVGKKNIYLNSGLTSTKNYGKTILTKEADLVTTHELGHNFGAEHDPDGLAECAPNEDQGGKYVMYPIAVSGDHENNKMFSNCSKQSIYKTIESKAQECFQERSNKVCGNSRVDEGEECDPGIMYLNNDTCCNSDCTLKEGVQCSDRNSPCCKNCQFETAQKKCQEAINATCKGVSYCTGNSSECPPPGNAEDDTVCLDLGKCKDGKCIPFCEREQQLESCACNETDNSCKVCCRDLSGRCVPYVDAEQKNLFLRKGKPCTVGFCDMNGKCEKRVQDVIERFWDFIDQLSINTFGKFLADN

Inhibition at 10 μM (%) PDE-4 [1]: 4% | inhibition at 10 µM (MMP-9): < 0% | inhibition at 10 µM (Human recombinant TACE): 15% | inhibition at 10 µM [6]: 3% | inhibition at 10 µM (MMP-1): 12%
Structure (SMILES): Cl.NC(Cc1ccc(Oc2ccc(C(=O)NO)cc2)cc1)C(=O)OCc1ccccc1 (stereo not drawn) [Compound 6, 2-amino-3-[4-(4-hydroxycarbamoylphenoxy)-phenyl]-propionic acid benzyl ester hydrochloric acid salt]
inhibition at 10 µM (IL-6 [2]): 97% | inhibition at 50 mg/kg (IL-6 [3]): 30% | inhibition at 10 µM (IL-1β): 73% | inhibition at 10 µM (TNF-α [4]): 20% | inhibition at 10 µM (nitric oxide): 20% | inhibition at 10 µM (TNF-α [5]): 69.6% | inhibition at 10 µM (T cell proliferation; Anti CD3 Abs induced, read-out: Inhibition of T cell proliferation, Anti CD3 Abs): < 80% | inhibition at 10 µM (T cell proliferation; CON A induced, read-out: Inhibition of T cell proliferation, CON A): 61 to 80% | inhibition at 10 µM (T cell proliferation; IL-2 induced, read-out: Inhibition of T cell proliferation, IL-2): 61 to 80% | inhibition at 10 µM (T cell proliferation; IL-4 induced, read-out: Inhibition of T cell proliferation, IL-4): 61 to 80% | inhibition at 10 µM (T cell proliferation; KLH specific, lymph nodes of KLH immunized SJL mice, read-out: Inhibition of T cell proliferation, KLH Specific): < 80% | arthritic scores [7]: significantly improved the arthritic scores | inhibition at 10 µM (TNF-α [8]): 92% | inhibition at 10 µM (IL-12; Macrophage, LPS stimulated mouse spleenic macrophages, 10 μM, read-out: Mice Spleen Cells (% Inhibition) IL-12): 80% | IL-12 production (IL-12; mouse splenic macrophages stimulated with LPS for 72 hrs): strongly inhibited IL-12 production | inhibition at 50 mg/kg (TNF-α [9]): 50%
